What was measured:
[1] = target: Tissue-type plasminogen activator (Homo sapiens, UniProt P00750); test: Inhibitory activity against tissue type plasminogen activator.
Serine protease 1 = Serine protease 1 (Homo sapiens, UniProt P07477); test: Inhibitory activity against trypsin.
Prothrombin = Prothrombin (Homo sapiens, UniProt P00734); test: Inhibitory activity against thrombin.
Plasminogen = Plasminogen (Homo sapiens, UniProt P00747); test: Inhibitory activity against plasmin.
Coagulation factor X = Coagulation factor X (Homo sapiens, UniProt P00742); test: In vitro inhibitory activity against coagulation factor X.
Coagulation factor X, sequence (P00742 41-179 limits assumed): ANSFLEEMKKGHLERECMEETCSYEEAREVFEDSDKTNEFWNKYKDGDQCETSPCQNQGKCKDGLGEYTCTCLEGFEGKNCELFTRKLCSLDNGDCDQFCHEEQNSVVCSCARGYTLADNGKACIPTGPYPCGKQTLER
Coagulation factor X, sequence (P00742 235-488 limits assumed): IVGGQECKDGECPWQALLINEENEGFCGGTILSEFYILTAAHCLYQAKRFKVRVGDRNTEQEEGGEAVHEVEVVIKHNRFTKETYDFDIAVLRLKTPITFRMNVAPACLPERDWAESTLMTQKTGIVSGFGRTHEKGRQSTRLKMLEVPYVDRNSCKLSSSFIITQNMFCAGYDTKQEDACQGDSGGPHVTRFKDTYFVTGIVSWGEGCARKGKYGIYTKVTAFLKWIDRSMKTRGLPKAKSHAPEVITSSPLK

[2] = target: Vitamin K-dependent protein C (Homo sapiens, UniProt P04070); test: Inhibitory activity against activated protein C
Vitamin K-dependent protein C, sequence (P04070 43-197 limits assumed): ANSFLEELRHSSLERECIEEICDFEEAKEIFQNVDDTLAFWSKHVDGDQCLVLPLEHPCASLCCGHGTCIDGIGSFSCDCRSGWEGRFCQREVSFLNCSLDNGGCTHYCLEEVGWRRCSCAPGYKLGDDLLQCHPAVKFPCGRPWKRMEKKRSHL
Vitamin K-dependent protein C, sequence (P04070 212-461 limits assumed): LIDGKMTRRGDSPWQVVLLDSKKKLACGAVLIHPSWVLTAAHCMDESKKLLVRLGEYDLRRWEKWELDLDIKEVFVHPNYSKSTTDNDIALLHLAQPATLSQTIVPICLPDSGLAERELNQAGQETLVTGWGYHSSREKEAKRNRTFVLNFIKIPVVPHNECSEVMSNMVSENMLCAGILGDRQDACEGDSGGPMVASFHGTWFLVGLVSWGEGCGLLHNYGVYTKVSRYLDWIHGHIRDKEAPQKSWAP

Homo sapiens = species: Homo sapiens; test: Concentration required to double the lag time of maximum thrombin generation in human plasma-based thrombin generation assay; format: functional

Plasminogen, sequence (P00747 97-580 limits assumed): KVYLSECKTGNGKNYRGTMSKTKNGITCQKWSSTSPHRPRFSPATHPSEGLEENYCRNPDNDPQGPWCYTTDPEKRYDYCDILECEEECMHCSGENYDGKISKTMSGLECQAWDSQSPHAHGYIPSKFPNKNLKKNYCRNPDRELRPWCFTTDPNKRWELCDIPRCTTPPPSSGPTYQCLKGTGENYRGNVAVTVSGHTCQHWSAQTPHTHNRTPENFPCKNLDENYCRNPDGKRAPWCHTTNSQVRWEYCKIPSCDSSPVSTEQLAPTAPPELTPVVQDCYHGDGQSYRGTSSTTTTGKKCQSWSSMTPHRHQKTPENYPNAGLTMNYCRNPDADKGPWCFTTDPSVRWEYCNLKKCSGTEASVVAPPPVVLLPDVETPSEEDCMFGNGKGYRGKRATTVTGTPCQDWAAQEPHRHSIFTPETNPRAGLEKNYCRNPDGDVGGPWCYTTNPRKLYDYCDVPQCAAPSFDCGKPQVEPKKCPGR
Plasminogen, sequence (P00747 581-810 limits assumed): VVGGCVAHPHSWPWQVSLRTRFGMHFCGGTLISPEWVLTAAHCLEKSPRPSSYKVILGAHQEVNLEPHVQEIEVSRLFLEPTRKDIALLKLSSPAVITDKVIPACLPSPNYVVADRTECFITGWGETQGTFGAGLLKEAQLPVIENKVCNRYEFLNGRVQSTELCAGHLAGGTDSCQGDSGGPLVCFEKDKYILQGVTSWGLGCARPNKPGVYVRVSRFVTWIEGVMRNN
Serine protease 1, sequence (P07477 whole entry): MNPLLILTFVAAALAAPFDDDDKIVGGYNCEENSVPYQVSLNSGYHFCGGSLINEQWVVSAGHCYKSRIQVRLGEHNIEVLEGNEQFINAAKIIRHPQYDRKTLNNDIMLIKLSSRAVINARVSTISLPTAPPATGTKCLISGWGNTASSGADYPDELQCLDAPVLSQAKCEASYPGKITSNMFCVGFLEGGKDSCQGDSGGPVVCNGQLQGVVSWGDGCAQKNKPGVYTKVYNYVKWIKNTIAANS
Tissue-type plasminogen activator, sequence (P00750 whole entry): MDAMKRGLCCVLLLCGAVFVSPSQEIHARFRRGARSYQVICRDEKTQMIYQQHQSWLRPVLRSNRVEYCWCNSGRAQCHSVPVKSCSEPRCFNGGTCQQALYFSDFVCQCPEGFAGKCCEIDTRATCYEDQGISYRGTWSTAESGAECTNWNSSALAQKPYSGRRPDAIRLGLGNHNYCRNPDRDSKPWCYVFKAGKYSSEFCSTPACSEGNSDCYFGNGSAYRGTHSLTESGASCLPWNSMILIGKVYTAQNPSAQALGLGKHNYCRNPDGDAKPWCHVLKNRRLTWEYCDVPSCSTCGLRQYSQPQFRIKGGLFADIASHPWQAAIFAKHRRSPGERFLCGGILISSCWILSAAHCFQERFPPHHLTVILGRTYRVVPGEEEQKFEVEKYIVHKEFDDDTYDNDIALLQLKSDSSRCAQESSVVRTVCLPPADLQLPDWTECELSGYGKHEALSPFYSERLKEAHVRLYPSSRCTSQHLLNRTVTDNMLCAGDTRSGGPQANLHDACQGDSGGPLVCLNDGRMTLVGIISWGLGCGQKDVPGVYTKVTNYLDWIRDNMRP

SMILES | IC50 [1] [µM] | IC50 (Serine protease 1) [µM] | IC50 (Prothrombin) [µM] | IC50 (Plasminogen) [µM] | IC50 (Coagulation factor X) [µM] | IC50 [2] [µM] | Activity (Homo sapiens) [µM]
CN(C)CCN(C)Cc1ccc(C(=O)Nc2ccc(Cl)cc2C(=O)Nc2ccc(Cl)cn2)cc1 | > 11 | > 11 | > 11 | > 11 | 0.0069 | > 11 | –
O=C(Nc1ccc(Cl)cc1C(=O)Nc1ccc(Cl)cn1)c1ccc(C[n+]2ccccc2)cc1 | > 11 | > 11 | > 11 | > 11 | 0.0058 | > 11 | –
CC(=N)N(C)CCN(C)Cc1ccc(C(=O)Nc2ccc(Cl)cc2C(=O)Nc2ccc(Cl)cn2)cc1 | > 11 | > 11 | > 11 | > 11 | 0.0011 | > 11 | –
CCN(CC)Cc1ccc(C(=O)Nc2ccc(Cl)cc2C(=O)Nc2ccc(Cl)cn2)cc1 | > 11 | > 11 | > 11 | > 11 | 0.035 | > 11 | –
CNCCN(C)Cc1ccc(C(=O)Nc2ccc(Cl)cc2C(=O)Nc2ccc(Cl)cn2)cc1 | > 11 | > 11 | > 11 | > 11 | 0.0068 | > 11 | –
CCOC(=O)CN(C)Cc1ccc(C(=O)Nc2ccc(Cl)cc2C(=O)Nc2ccc(Cl)cn2)cc1 | > 11 | > 11 | > 11 | > 11 | 0.176 | > 11 | –
CN(CC(=O)O)Cc1ccc(C(=O)Nc2ccc(Cl)cc2C(=O)Nc2ccc(Cl)cn2)cc1 | > 11 | > 11 | > 11 | > 11 | 0.156 | > 11 | –
COCCN(C)Cc1ccc(C(=O)Nc2ccc(Cl)cc2C(=O)Nc2ccc(Cl)cn2)cc1 | > 11 | > 11 | > 11 | > 11 | 0.053 | > 11 | –
CN(Cc1ccc(C(=O)Nc2ccc(Cl)cc2C(=O)Nc2ccc(Cl)cn2)cc1)C1=NCCS1 | > 11 | > 11 | > 11 | > 11 | 0.01 | > 11 | –
CN(CCO)Cc1ccc(C(=O)Nc2ccc(Cl)cc2C(=O)Nc2ccc(Cl)cn2)cc1 | > 11 | > 11 | > 11 | > 11 | 0.082 | > 11 | –
CN(CCN(C)C(=N)N)Cc1ccc(C(=O)Nc2ccc(Cl)cc2C(=O)Nc2ccc(Cl)cn2)cc1 | > 11 | > 11 | > 11 | > 11 | 0.002 | > 11 | –
N=C(N)NCc1ccc(C(=O)Nc2ccc(Cl)cc2C(=O)Nc2ccc(Cl)cn2)cc1 | > 11 | > 11 | > 11 | > 11 | 0.0014 | > 11 | –
CN(Cc1ccc(C(=O)Nc2ccc(Cl)cc2C(=O)Nc2ccc(Cl)cn2)cc1)C1=NCCN1 | > 11 | > 11 | > 11 | > 11 | 0.002 | > 11 | –
CN(Cc1ccc(C(=O)Nc2ccc(Cl)cc2C(=O)Nc2ccc(Cl)cn2)cc1)C1=NCCO1 | > 11 | > 11 | > 11 | > 11 | 0.0015 | > 11 | –
NCc1ccccc1-c1ccc(C(=O)Nc2ccc(Cl)cc2C(=O)Nc2ccc(Cl)cn2)cc1 | – | – | – | – | 0.0013 | – | >5
CN(Cc1ccc(C(=O)Nc2ccc(Cl)cc2C(=O)Nc2ccc(Cl)cn2)cc1)C(=N)c1ccccc1 | > 11 | > 11 | > 11 | > 11 | 0.011 | > 11 | –
CC(=O)NNCc1ccc(C(=O)Nc2ccc(Cl)cc2C(=O)Nc2ccc(Cl)cn2)cc1 | > 11 | > 11 | > 11 | > 11 | 0.04 | > 11 | –
CC(=N)NCc1ccc(C(=O)Nc2ccc(Cl)cc2C(=O)Nc2ccc(Cl)cn2)cc1 | > 11 | > 11 | > 11 | > 11 | 0.0036 | > 11 | –
CCN(C)Cc1ccc(C(=O)Nc2ccc(Cl)cc2C(=O)Nc2ccc(Cl)cn2)cc1 | > 11 | > 11 | > 11 | > 11 | 0.012 | > 11 | –
C/N=C(/NC)N(C)Cc1ccc(C(=O)Nc2ccc(Cl)cc2C(=O)Nc2ccc(Cl)cn2)cc1 | > 11 | > 11 | > 11 | > 11 | 0.0008 | > 11 | –

The next lines start with results.

IC50 [1] [µM] | IC50 (Serine protease 1) [µM] | IC50 (Prothrombin) [µM] | IC50 (Plasminogen) [µM] | IC50 (Coagulation factor X) [µM] | IC50 [2] [µM] | SMILES | Activity (Homo sapiens) [µM]
> 11 | > 11 | > 11 | > 11 | 0.23 | > 11 | O=C(Nc1ccc(Cl)cc1C(=O)Nc1ccc(Cl)cn1)c1ccc(CN2CCC(C(=O)O)CC2)cc1 | –
> 11 | > 11 | > 11 | > 11 | 0.0063 | > 11 | NC1=NCCCCN1Cc1ccc(C(=O)Nc2ccc(Cl)cc2C(=O)Nc2ccc(Cl)cn2)cc1 | –
> 11 | > 11 | > 11 | > 11 | 0.136 | > 11 | O=C(Nc1ccc(Cl)cc1C(=O)Nc1ccc(Cl)cn1)c1ccc(CN2CCC(O)CC2)cc1 | –
> 11 | > 11 | > 11 | > 11 | 0.01 | > 11 | NCc1ccc(C(=O)Nc2ccc(Cl)cc2C(=O)Nc2ccc(Cl)cn2)cc1 | –
> 11 | > 11 | > 11 | > 11 | 0.017 | > 11 | O=C(Nc1ccc(Cl)cc1C(=O)Nc1ccc(Cl)cn1)c1ccc(CN2CCNCC2)cc1 | –
> 11 | > 11 | > 11 | > 11 | 0.0038 | > 11 | NC1=NCCCN1Cc1ccc(C(=O)Nc2ccc(Cl)cc2C(=O)Nc2ccc(Cl)cn2)cc1 | –
> 11 | > 11 | > 11 | > 11 | 0.03 | > 11 | O=C(Nc1ccc(Cl)cc1C(=O)Nc1ccc(Cl)cn1)c1ccc(CN2CCNC2=O)cc1 | –
> 11 | > 11 | > 11 | > 11 | 0.552 | > 11 | O=C(Nc1ccc(Cl)cc1C(=O)Nc1ccc(Cl)cn1)c1ccc(CN2CCCC2=O)cc1 | –
> 11 | > 11 | > 11 | > 11 | 0.005 | > 11 | CC(=N)N1CCN(Cc2ccc(C(=O)Nc3ccc(Cl)cc3C(=O)Nc3ccc(Cl)cn3)cc2)CC1 | –
> 11 | > 11 | > 11 | > 11 | 0.015 | > 11 | CN1CCN(Cc2ccc(C(=O)Nc3ccc(Cl)cc3C(=O)Nc3ccc(Cl)cn3)cc2)CC1 | –
> 11 | > 11 | > 11 | > 11 | 0.04 | > 11 | NNCc1ccc(C(=O)Nc2ccc(Cl)cc2C(=O)Nc2ccc(Cl)cn2)cc1 | –
> 11 | > 11 | > 11 | > 11 | 0.171 | > 11 | CCOC(=O)C1CCN(Cc2ccc(C(=O)Nc3ccc(Cl)cc3C(=O)Nc3ccc(Cl)cn3)cc2)CC1 | –
> 11 | > 11 | > 11 | > 11 | 0.076 | > 11 | NC(=O)C1CCN(Cc2ccc(C(=O)Nc3ccc(Cl)cc3C(=O)Nc3ccc(Cl)cn3)cc2)CC1 | –
> 11 | > 11 | > 11 | > 11 | 0.015 | > 11 | NC1CCN(Cc2ccc(C(=O)Nc3ccc(Cl)cc3C(=O)Nc3ccc(Cl)cn3)cc2)CC1 | –
> 11 | > 11 | > 11 | > 11 | 0.035 | > 11 | O=C(Nc1ccc(Cl)cc1C(=O)Nc1ccc(Cl)cn1)c1ccc(CN2CCN=C2S)cc1 | –
> 11 | > 11 | > 11 | > 11 | 0.0035 | > 11 | CNC1=NCCN1Cc1ccc(C(=O)Nc2ccc(Cl)cc2C(=O)Nc2ccc(Cl)cn2)cc1 | –
> 11 | > 11 | > 11 | > 11 | 0.015 | > 11 | O=C(Nc1ccc(Cl)cc1C(=O)Nc1ccc(Cl)cn1)c1ccc(CN2CCCCC2)cc1 | –
> 11 | > 11 | > 11 | > 11 | 0.14 | > 11 | O=C(Nc1ccc(Cl)cc1C(=O)Nc1ccc(Cl)cn1)c1ccc(CN2CCOCC2)cc1 | –
> 11 | > 11 | > 11 | > 11 | 0.0013 | > 11 | CN(C)C1=NCCN1Cc1ccc(C(=O)Nc2ccc(Cl)cc2C(=O)Nc2ccc(Cl)cn2)cc1 | –
> 11 | > 11 | > 11 | > 11 | 0.007 | > 11 | CNCc1ccc(C(=O)Nc2ccc(Cl)cc2C(=O)Nc2ccc(Cl)cn2)cc1 | –
> 11 | > 11 | > 11 | > 11 | 0.016 | > 11 | O=C(Nc1ccc(Cl)cc1C(=O)Nc1ccc(Cl)cn1)c1ccc(CN2CCCC2)cc1 | –
> 11 | > 11 | > 11 | > 11 | 0.0023 | > 11 | C[N+]1(Cc2ccc(C(=O)Nc3ccc(Cl)cc3C(=O)Nc3ccc(Cl)cn3)cc2)CCCC1 | –

Reference: ChEMBL document CHEMBL1147578, “Design, synthesis, and SAR of anthranilamide-based factor Xa inhibitors with improved functional activity” (Bioorg Med Chem Lett, 2004)
